Literature values as cited in the PKSmart pharmacokinetics tables (Seal et al. 2025).

Key:
[1] = Lombardo, Berellini, Obach 2018, Drug Metab Dispos 46:1466, doi 10.1124/dmd.118.082966; details: human; for MRT / Vd / clearance / half-life: in vivo, iv; for fraction unbound: plasma
[2] = Lombardo et al. 2013, J Clin Pharmacol 53:178, doi 10.1177/0091270012440282; details: for Vd / clearance: in vivo, iv; for fraction unbound: plasma

Compound | MRT [1] [h] | Vd [1] [L/kg] | clearance [1] [mL/min/kg] | half-life [1] [h] | fraction unbound [1] | Vd ([2]; dog) [L/kg] | clearance ([2]; dog) [mL/min/kg] | fraction unbound ([2]; dog) | Vd ([2]; rat) [L/kg] | clearance ([2]; rat) [mL/min/kg] | Vd ([2]; monkey) [L/kg] | clearance ([2]; monkey) [mL/min/kg] | fraction unbound ([2]; monkey) | fraction unbound ([2]; rat)
CNC1(c2ccccc2Cl)CCCCC1=O (stereo not drawn) | 2.5 | 2.9 | 19 | 2.8 | 0.47 | 2.5 | 32.2 | 0.47 | 3.68 | 115 |  |  |  | 
Nc1ccn([C@@H]2O[C@H](CO)[C@@H](O)[C@@H]2O)c(=O)n1 | 0.28 | 0.67 | 41.7 | 0.17 |  | 0.86 | 11.3 |  |  |  |  |  |  | 
CON=C(C(=O)NC1C(=O)N2C(C(=O)O)=C(COC(N)=O)CS[C@H]12)c1ccco1 (stereo partly drawn) | 1.1 | 0.15 | 2.2 | 1.1 |  | 1.5 | 5 |  |  |  |  |  |  | 
CC1(C)S[C@@H]2C(NC(=O)C(N)c3ccc(O)cc3)C(=O)N2C1C(=O)O (stereo partly drawn) | 1.3 | 0.25 | 3.3 | 1.1 |  | 0.31 | 3.4 | 0.66 | 0.5 | 17 |  |  |  | 
CC(C)(ON=C(C(=O)NC1C(=O)N2C(C(=O)O)=C(C[n+]3ccccc3)CS[C@H]12)c1csc(N)n1)C(=O)[O-] (stereo partly drawn) | 2.2 | 0.31 | 2.4 | 1.8 | 0.79 | 0.21 | 3.2 | 1 | 0.3 | 8.7 | 0.26 | 2.1 | 0.945 | 
Nc1ncn([C@H]2C[C@H](O)[C@@H](CO)O2)c(=O)n1 | 0.59 | 4.6 | 130 | 0.58 |  | 0.85 | 8.6 |  | 1.8 | 7.9 |  |  |  | 
NCCC(O)(P(=O)(O)O)P(=O)(O)O | 12 | 1.8 | 2.5 | 32 | 0.7 |  |  |  | 0.18 | 15.2 |  |  |  | 
CCCC[C@@H]1CC(=O)[C@]2(O)O[C@@H]3[C@@H](NC)[C@@H](O)[C@@H](NC)[C@H](O)[C@H]3O[C@@H]2O1 | 6.9 | 0.7 | 1.7 | 11 | 0.65 | 49.8 | 2.69 | 0.533 | 4.46 | 4.28 |  |  |  | 0.62
C[C@]12C=CC(=O)C=C1CC[C@@H]1C2C(=O)C[C@@]2(C)[C@H]1CC[C@]2(O)C(=O)CO (stereo partly drawn) | 3.8 | 0.57 |  | 2.9 |  | 2.3 | 24.9 | 0.5 | 1.3 | 155 | 1.7 | 9.8 | 0.261 | 0.41
COc1nc(N)nc2c1ncn2[C@@H]1O[C@H](CO)[C@@H](O)[C@@H]1O | 1 | 4.9 | 81 | 0.5 |  |  |  |  |  |  | 1.3 | 42 |  | 
CON=C(C(=O)NC1C(=O)N2C(C(=O)[O-])=C(C[n+]3ccc(N)n3CCO)CS[C@H]12)c1csc(N)n1 (stereo partly drawn) | 2.78 | 0.3 | 1.77 | 2.9 |  | 0.39 | 3.5 |  | 0.2 | 9.6 | 0.28 | 1.9 |  | 
CC(=N)N1CC[C@H](SC2=C(C(=O)O)N3C(=O)C([C@@H](C)O)[C@H]3C2)C1 (stereo partly drawn) | 1.2 | 0.19 | 2.6 | 0.96 |  | 0.21 | 4.85 | 0.95 | 0.2 | 27.7 | 0.3 | 6.52 | 0.93 | 0.95
CON=C(C(=O)NC1C(=O)N2C(C(=O)O)=C(CSc3nc(C)c(CC(=O)O)s3)CS[C@H]12)c1csc(N)n1 (stereo partly drawn) | 1.5 | 0.054 | 0.61 | 4.2 | 0.18 | 0.26 | 4.1 | 0.243 | 0.18 | 1.1 | 0.15 | 1.2 | 1 | 0.0097
O=C(NCC1CCCCN1)c1cc(OCC(F)(F)F)ccc1OCC(F)(F)F (stereo not drawn) | 21 | 6.1 |  | 12 |  | 1.1 |  | 0.3 | 6.9 |  |  |  |  | 
CNS(=O)(=O)Cc1ccc2[nH]cc(CCN(C)C)c2c1 | 1.5 | 1.7 | 19 | 1.7 |  | 1.74 | 13.9 | 0.86 | 1.15 | 28 |  |  |  | 0.85
CN/C(=C\[N+](=O)[O-])NCCSCc1ccc(CN(C)C)o1 | 2.1 | 1.2 |  | 2.1 |  | 1.65 |  |  | 2.87 |  |  |  |  | 1
COCCOC(=O)C1=C(C)NC(C)=C(C(=O)OC(C)C)C1c1cccc([N+](=O)[O-])c1 (stereo not drawn) | 1.2 | 1.1 |  | 1.3 |  | 3 | 18 | 0.03 | 5.5 | 19.6 | 3.62 | 33 | 0.095 | 0.03
Nc1[nH]c(=O)ncc1F | 5.7 | 0.68 | 2 | 4.2 |  | 0.64 | 2.4 |  |  |  |  |  |  | 
CCCCN1CCCCC1C(=O)Nc1c(C)cccc1C (stereo not drawn) | 2.12 | 0.665 | 6.5 | 1.95 | 0.043 | 0.7 | 32 | 0.11 | 2.4 | 76 | 0.66 | 10 | 0.051 | 0.23
O=NN(CCCl)C(=O)NCCCl | 0.26 | 1.2 | 78 | 0.37 | 0.23 | 1.1 | 17.8 |  |  |  | 0.9 | 21 |  | 
COc1nc(C)nc(Cl)c1NC1=NCCN1 | 2.7 | 1.8 | 11 | 2.2 |  |  |  |  | 3.2 | 50.1 |  |  |  | 
CCC1(c2ccccc2)C(=O)NC(=O)NC1=O | 140 | 0.54 | 0.063 | 99 |  | 0.79 | 0.1 | 0.54 | 1.02 | 0.8 |  |  |  | 0.64
CON=C(C(=O)NC1C(=O)N2C(C(=O)O)=C(CSc3nnnn3C)CS[C@H]12)c1csc(N)n1 (stereo partly drawn) | 0.77 | 0.2 | 3.65 | 0.89 | 0.31 | 0.3 | 8.91 |  | 0.28 | 7.46 |  |  |  | 
CC(C)NCC(O)COc1ccc(CCOCC2CC2)cc1 (stereo not drawn) | 24 | 4.8 | 3.4 | 17 |  | 8.2 | 20 | 0.47 | 12 | 154 |  |  |  | 0.54
COc1cc2nc(N3CCN(C(=O)C(C)OC)CC3)nc(N)c2cc1OC (stereo not drawn) | 13.7 | 0.44 | 0.53 |  |  |  |  |  | 5.9 | 44.2 |  |  |  | 
